According to US20230382920A1, “SHMT Inhibitors” (The Trustees of Princeton University, priority 2020, published 2023):
Counter-ions that a name gives are not always drawn. Like-named read-outs stand apart in the source and are kept apart here.

Experiments:
[1] = Mouse liver microsome assay (metabolic stability); type: in vitro ADME; details: mouse liver microsomes; for half-life at 2 µM: in vitro half-life; for microsomal CLint at 2 µM: in vitro intrinsic clearance, read-out: Relative Clint
Experimental: Example 6. Mouse Liver Microsome Assay
Metabolic stability of several compounds in mouse liver microsomes was tested. Briefly, a master solution was prepared according to Table 31.
Two separate experiments were performed: an experiment with cofactors and an experiment without cofactors. In the experiment with cofactors 40 μL of 10 mM NADPH and 40 μL of 20 mM UDPGA were added to the incubations. The final concentrations of microsomes, NADPH and UDPGA were 0.5 mg/mL, 1 mM and 2 mM, respectively. In the experiment without cofactors 10 μL of 20 mg/mL liver microsomes and 80 μL of ultra-pure H2O were added to the incubations. The final concentration of microsomes was 0.5 mg/mL. The mixture was pre-warmed at 37° C. for 5 minutes.
The reaction was started with the addition of 4 μL of 200 μM control compound or test compound solutions. Verapamil was used as positive control in this study. The final concentration of test compound was 2 μM and the final concentration of control compound was 1 μM. The incubation solution was incubated in water bath at 37° C.
Aliquots of 50 μL were taken from the reaction solution at 0.5, 5, 15, 30, 45 and 60 minutes. The reaction was stopped by the addition of five volumes of cold acetonitrile with IS (100 nM alprazolam, 200 nM caffeine and 100 nM tolbutamide). Samples were centrifuged at 3,220 g for 40 minutes. Aliquot of 100 μL of the supernatant was mixed with 100 μL of ultra-pure H2O and then subject to LC-MS/MS analysis.
All calculations were carried out using Microsoft Excel. Peak areas were determined from extracted ion chromatograms. The slope value, k, was determined by linear regression of the natural logarithm of the remaining percentage of the parent drug versus incubation time curve. The in vitro half-life (in vitro t½) was determined from the slope value:
Conversion of the in vitro t1/2(min) into the in vitro intrinsic clearance (in vitro CLint, in μL/min/mg protein) was done using the following equation (mean of duplicate determinations): […]

HCT116 [2] = assay: HCT116 growth inhibition assay; type: cell-based; details: without formate
Experimental: (§1) Example 5. HCT116 Growth Inhibition and Formate Rescue Assays
(§2) 3,000 Cells were plated in each well of a 96-well plate with 80 μL of DMEM media supplemented with 10% dFBS, and incubated for 24 hours. Drugs with or without sodium formate (1 mM) were then added to each well to a final volume of 100 μL. Cell growth was measured as fluorescence intensity by resazurin after four days. In short, resazurin was added to each well to a final concentration of 10 μg·mL^−1. After incubation for one hour, fluorescence was measured by a Synergy HT plate reader (BioTek Instruments).

HCT116 [3] = assay: HCT116 formate rescue assay (with sodium formate 1 mM); type: cell-based; details: Homo sapiens, HCT-116, 96 h, HCT116 growth
Experimental: as §1, §2

[4] = Pharmacokinetics study of KDG-0271 in male CD1 mice (Example 3); type: in vivo; details: for F: bioavailability vs 1 mg/kg IV; for MRT inf: read-out: MRTInf_obs
Experimental: A standard PK study of KDG-0271 was performed in male CD1 mice dosed with a single oral or intraperitoneal dose of KDG-0271. The parameters of the PK study are described in Table 18. Dosing solutions were freshly made prior to use, and were in the form of a suspension. […] For IV and IP, after collection, plasma samples from the same time point were pooled, and the pooled samples were analyzed by LC/MS/MS.
The desired serial concentrations of working solutions were achieved by diluting stock solution of analyte with 50% acetonitrile in water solution. 5 μL of working solutions (1, 2, 4, 20, 100, 200, 1000, 2000 ng/mL) were added to 10 μL of blank CD1 mouse plasma to achieve calibration standards of […] (0.5, 1, 2, 10, 50, 100, 500, 1000 ng/mL) in a total volume of 15 μL. Four quality control samples at 1 ng/mL, 2 ng/mL, 50 ng/mL and 800 ng/mL for plasma were prepared independently of those used for the calibration curves. These QC samples were prepared on the day of analysis in the same way as calibration standards.
15 μL standards, 15 μL QC samples and 15 μL unknown samples (10 μL plasma with 5 μL blank solution) were added to 200 μL of acetonitrile containing IS mixture for precipitating protein. Then the samples were vortexed for 30 seconds. After centrifugation at 4 degrees Celsius, 4000 rpm for 15 minutes, the supernatant was diluted three times with water. 10 μL of diluted supernatant was injected into the LC/MS/MS system for quantitative analysis.
BLOQ=Below quantifiable limit of 1 ng/mL. PK parameters were estimated by non-compartmental model using WinNonlin 6.1. The PO bioavailability (F %) was calculated as following:
AUClast-PO/AUCINF-PO>80%: F=(AUCINF-PO*DoseIV)/(mean AUCINF-IV*DosePO) AUClast-PO/AUCINF-PO≤80% or AUCINF was not available: F=(AUClast-PO*DoseIV)/(mean AUClast-IV*DosePO).
The IP bioavailability (F %) was calculated as following:
AUClast-IP/AUCINF-IP>80%: F=(AUCINF-IP*DoseIV)/(mean AUCINF-IV*DoseIP) AUClast-IP/AUCINF-IP≤80% or AUCINF was not available: F=(AUClast-IP*DoseIV)/(mean AUClast-IV*DoseIP).

[5] = male, mouse, plasma, CD1 mice, 1 mg/kg IV
[6] = male, mouse, CD1 mice, plasma, 1 mg/kg IV, read-out: Concentration IV_Mean
[7] = mouse, plasma, male CD1 mice, 200 mg/kg IP
[8] = mouse, plasma, male CD1 mice, 200 mg/kg PO
[9] = mouse, male CD1 mice, plasma, 200 mg/kg IP, read-out: Concentration IP_Mean
[10] = mouse, male CD1 mice, plasma, 200 mg/kg PO, read-out: Concentration PO_Mean

In the case of `Cc1n[nH]c2c1C(c1cc(C#CC3CN(C(=O)OC(C)(C)C)C3)cc(CO)c1)(C(C)C)C(C#N)=C(N)O2` (centres unmarked) [KDG-0271, tert-butyl 3-[2-(3-[6-amino-5-cyano-4-isopropyl-3-methyl-1H-pyrano[2,3-c]pyrazol-4-yl]-5-(hydroxymethyl)phenyl)ethynyl]azetidine-1-carboxylate], the half-life at 2 µM [1] is reported as 10 to 20 min, the microsomal CLint at 2 µM [1] is reported as 70 to 100 µL/min/mg and the IC50 (HCT116 [2]) is reported as “A″”. For the same molecule, the IC50 (HCT116 [3]) was greater than 5 µM, the AUC_%Extrap_obs ([4]; CD1 mice, 1 mg/kg IV) was 0.718% and the AUClast/D ([4]; CD1 mice, 1 mg/kg IV) was 99.3 kg·ng·h/mL/mg. For the same molecule, the Cl_obs ([4]; CD1 mice, 1 mg/kg IV) was 167 mL/min/kg, the Vss_obs ([4]; CD1 mice, 1 mg/kg IV) was 3.32 L/kg and the “Concentration IV_Mean” value ([4]; CD1 mice, plasma, 1 mg/kg IV, 8 h) was “BLOQ”. It also gave an AUC_%Extrap_obs ([4]; male CD1 mice, 200 mg/kg IP) of 43.6%, an AUClast/D ([4]; male CD1 mice, 200 mg/kg IP) of 40.7 kg·ng·h/mL/mg and an F ([4]; male CD1 mice, 200 mg/kg IP) of 41.0%. It also gave an AUC_%Extrap_obs ([4]; male CD1 mice, 200 mg/kg PO) of 1.28%, an AUClast/D ([4]; male CD1 mice, 200 mg/kg PO) of 19.2 kg·ng·h/mL/mg and an F ([4]; male CD1 mice, 200 mg/kg PO) of 19.4%. For the same molecule, the clinical symptoms ([4]; male CD1 mice, single dose 200 mg/kg PO or 200 mg/kg IP, entire experiment) was “No abnormal clinical symptoms were observed”, the AUC(0-inf) [4, 5] was 100 ng·h/mL and the AUC(0-t) [4, 5] was 99.3 ng·h/mL. The C0 [4, 5] was 637 ng/mL, the half-life [4, 5] was 47.2 min and the MRT inf [4, 5] was 19.9 min. For the same molecule, the concentration at 0.083 h ([4]; male, mouse, CD1 mice, plasma, 1 mg/kg IV, 0.083 h, read-out: Concentration IV_Mean) was 301 ng/mL, the concentration at 0.25 h [4, 6] was 66.6 ng/mL and the concentration at 0.5 h [4, 6] was 24.8 ng/mL. The concentration at 1 h [4, 6] was 9.44 ng/mL, the concentration at 2 h [4, 6] was 2.87 ng/mL and the concentration at 4 h [4, 6] was 0.632 ng/mL. The AUC(0-inf) [4, 7] was 14500 ng·h/mL, the AUC(0-t) [4, 7] was 8150 ng·h/mL and the Cmax [4, 7] was 2160 ng/mL. The Tmax [4, 7] was 15 min, the half-life [4, 7] was 411 min and the MRT inf [4, 7] was 580 min. The AUC(0-inf) [4, 8] was 3880 ng·h/mL, the AUC(0-t) [4, 8] was 3830 ng·h/mL and the Cmax [4, 8] was 1070 ng/mL. The Tmax [4, 8] was 60 min, the half-life [4, 8] was 72 min and the MRT inf [4, 8] was 142 min. The concentration at 0.25 h [4, 9] was 2160 ng/mL, the concentration at 0.5 h [4, 9] was 1530 ng/mL and the concentration at 1 h [4, 9] was 1390 ng/mL. It also gave a concentration at 2 h [4, 9] of 1160 ng/mL, a concentration at 4 h [4, 9] of 992 ng/mL and a concentration at 8 h ([4]; mouse, male CD1 mice, plasma, 200 mg/kg IP, 8 h, read-out: Concentration IP_Mean) of 638 ng/mL. For the same molecule, the concentration at 0.25 h [4, 10] was 701 ng/mL, the concentration at 0.5 h [4, 10] was 958 ng/mL and the concentration at 1 h [4, 10] was 1070 ng/mL. For the same molecule, the concentration at 2 h [4, 10] was 836 ng/mL, the concentration at 4 h [4, 10] was 395 ng/mL and the concentration at 8 h ([4]; mouse, male CD1 mice, plasma, 200 mg/kg PO, 8 h, read-out: Concentration PO_Mean) was 28.6 ng/mL.
For `Cc1n[nH]c2c1C(c1cc(C#C[C@H]3CC[C@H](NC(=O)OC(C)(C)C)CC3)cc(CO)c1)(C(C)C)C(C#N)=C(N)O2` (some centres unmarked) [KDG-0320, tert-butyl N-[(1r,4r)-4-[2-(3-[6-amino-5-cyano-4-isopropyl-3-methyl-1H-pyrano[2,3-c]pyrazol-4-yl]-5-(hydroxymethyl)phenyl)ethynyl]cyclohexyl]carbamate hydrochloride], the half-life at 2 µM [1] was no less than 20 min, the microsomal CLint at 2 µM [1] was no more than 70 µL/min/mg and the IC50 (HCT116 [2]) was “B″”. It also gave an IC50 (HCT116 [3]) of less than 0.1 µM.
With `Cc1n[nH]c2c1C(c1cc(C#C[C@H]3C[C@@H](NC(=O)OC(C)(C)C)C3)cc(CO)c1)(C(C)C)C(C#N)=C(N)O2` (some centres unmarked) [KDG-0388, tert-butyl N-[(1s,3s)-3-[2-(3-[6-amino-5-cyano-4-isopropyl-3-methyl-1H-pyrano[2,3-c]pyrazol-4-yl]-5-(hydroxymethyl)phenyl)ethynyl]cyclobutyl]carbamate] the half-life at 2 µM [1] was no less than 20 min, the microsomal CLint at 2 µM [1] was no more than 70 µL/min/mg and the IC50 (HCT116 [2]) was “B″”. For the same molecule, the IC50 (HCT116 [3]) was greater than 5 µM.
